The text below walks through data of patent publication US20230234917A1, “ASPARAGINE DERIVATIVES AND METHODS OF USING SAME” (priority 2020, published 2023).

For assay [1], the target named is T1, ClbP (Escherichia coli, UniProt Q0P7K6). Put plainly: ClbP whole cell activity (inhibition) assay, fluorogenic substrate. Type of assay: cell-based, E. coli. On the procedure: Whole Cell Activity Assay
(§1) 1) E. coli ClbP+ were taken from a frozen stock and streaked onto BHI plates. They were grown aerobically at 37° C. overnight in the incubator.
(§2) 1) A single colony was selected from the plate and inoculated into 30 mL LB in a 50 mL conical vial eight times (240 mL total). The bacteria were grown aerobically overnight (16-20 h) at 37° C. on a nutator with rocking.
1) The saturated overnight culture was centrifuged to create a firm pellet (3,200 g, 10 min, 4° C.). In a biosafety cabinet, the supernatant was removed and then the pellet was resuspended in 30 mL sterile PBS.
2) The bacteria were centrifuged again (3,200 g, 10 min, 4° C.). The supernatant was removed, and the pellet was resuspended in sterile PBS buffer (6 mL) in each of the 8 tubes. This fivefold concentrated bacterial solution was the working solution.
3) The bacterial working solution (192 μL) was mixed with inhibitor (6 μL, final concentration was 300, 100, 33.3, 11.1, 3.7, 1.2, 0.4, or 0 μM). Fluorogenic substrate (2 μL, final concentration 5 μM) was immediately added across the plate to initiate the reaction. As a control, each plate contained Compound No. III in this dose response curve. The bacterial concentration was fivefold concentrated compared to the original saturated overnight culture. Carryover from DMSO was 4% (v/v). All compounds were tested in singlicate.
4) The plate was loaded into a spectrophotometer preheated to 37° C. The fluorescence was recorded every 2 min for 46 min. The excitation wavelength was 360 nm (20 nm bandwidth), the emission wavelength was 460 nm (20 nm bandwidth), the optics position was bottom, the gain was 65, the light source was a tungsten bulb, and the read speed was normal.
5) The linear portion of the fluorescence increase was 10-30 min. The rate of fluorescence increase (A.U./min) for each well in an inhibitor series was normalized to the 0 μM inhibitor condition. The normalized activity as a function of inhibitor concentration was then fit to a three parameter IC50 curve in Graphpad Prism.
(§3) “A” indicates an IC50 value less than 100 μM, “B” indicates an IC50 between 100 and 300 μM, “C” indicates an IC50 above 300 μM.

Assay [2] addresses T1, ClbP. Description: ClbP cell lysate activity (inhibition) assay, fluorogenic substrate. As to conditions: ClbP Lysate Inhibition Assay: IC50, E. coli ClbP+ lysozyme-EDTA lysates, 5 μM fluorogenic substrate, inhibitor 0-300 μM, 37° C., singlicate. The class given is biochemical. As to the method:
Cell Lysate Activity Assay
as §1, §2
1) The saturated overnight culture was centrifuged to create a firm pellet (3,200 g, 10 min, 4° C.). The supernatant was removed and then the pellet was resuspended in 30 mL sterile PBS.
2) The bacteria were centrifuged again (3,200 g, 10 min, 4° C.). The supernatant was removed, and the pellet was resuspended in sterile PBS buffer (3 mL) in each 8 tubes to make a tenfold concentrated bacterial solution.
3) A lysozyme-EDTA (LE) solution was made in ddH2O (0.05 mg/mL lysozyme, 0.25 M EDTA).
4) For each of the eight tubes, LE solution (3 mL) was mixed with concentrated bacterial solution (3 mL). This mixture was incubated at 37° C. for 30 min to generate the lysates.
5) The lysates (192 μL) were mixed with inhibitor (6 μL, final concentration was 300, 100, 33.3, 11.1, 3.7, 1.2, 0.4, or 0 μM). Fluorogenic substrate (2 μL, final concentration 5 μM) was immediately added across the plate to initiate the reaction. As a control, each plate contained Compound No. III in this dose response curve. The final concentration of bacterial lysates was fivefold concentrated compared to the original saturated overnight culture. Carryover from DMSO was 4% (v/v). All compounds were tested in singlicate.
6) The plate was loaded into a spectrophotometer preheated to 37° C. The fluorescence was recorded every 2 min for 46 min. The excitation wavelength was 360 nm (20 nm bandwidth), the emission wavelength was 460 nm (20 nm bandwidth), the optics position was bottom, the gain was 65, the light source was a tungsten bulb, and the read speed was normal.
7) The linear portion of the fluorescence increase was 0-20 min. The rate of fluorescence increase (A.U./min) for each well in an inhibitor series was normalized to the 0 μM inhibitor condition. The normalized activity as a function of inhibitor concentration was then fit to a three parameter IC50 curve in Graphpad Prism.
as §3

The target in the next assay is Full-length WT ClbP (Escherichia coli, UniProt Q0P7K6). Description: ClbP molecular (purified protein) enzymatic inhibition assay, fluorogenic substrate. The class given is biochemical, E. coli. On the procedure: ClbP Molecular (Purified Protein) Assay
1) Full-length WT ClbP was thawed on ice. A diluted enzyme solution (2 nM) was made by mixing 3.57 μL of enzyme with 20 mL of reaction buffer (50 mM Tris pH 8.0, 200 mM NaCl, 0.02% (w/v) n-dodecyl-b-D-maltoside (DDM)).
2) In a 96 well plate, the diluted protein solution (73.5 μL) was mixed with inhibitor (1.5 μL, of varying concentrations, see below) and preincubated for 15 min at room temperature. Then, reaction buffer (75 μL) containing 10 μM fluorogenic substrate was added to initiate the reaction. After addition of substrate, the final concentrations were 1 nM full-length WT ClbP, 5 μM fluorogenic substrate in 50 mM Tris pH 8.0, 200 mM NaCl, 0.02% (w/v) DDM, with either 0, 0.14, 0.41, 1.2, 3.7, 11, 33, or 100 μM inhibitor. For all conditions, the DMSO carryover was 2% (v/v) at the preincubation stage and 1% in the reaction stage. Compound No. III was always present as a control in each plate, and all compounds were tested in singlicate. In previous assays, the Km of the fluorogenic substrate was determined to be approximately 5 μM.
3) Immediately after addition of substrate to enzyme, the plate was transferred into a spectrophotometer held at room temperature. The fluorescence was recorded every 1.5 min for 15 min. The excitation wavelength was 360 nm (20 nm bandwidth), the emission wavelength was 440 nm (20 nm bandwidth), the optics position was bottom, the gain was extended, the light source was a xenon flash lamp, and the read speed was normal.
4) The linear portion of the fluorescence increase is at least from 0-6 min, so this time regime is used. The rate of fluorescence increase (A.U./min) for each well in an inhibitor series was normalized to the 0 μM inhibitor condition. The normalized activity as a function of inhibitor concentration was then fit to a three parameter IC50 curve in Graphpad Prism.
as §3

A word on the IC50: it is the concentration at which inhibition is half-maximal.

Molecules are shown by their SMILES.

`CN1CCC(CCCC(=O)N[C@H](CC(N)=O)C(=O)NCCc2ccc(O)cc2)CC1` [Compound CCCVIII]: the results for the IC50 against ClbP [1], on ClbP [2] and on Full-length WT ClbP were less than 100 µM, greater than 300 µM and greater than 300 µM, respectively.

For the compound `CCCCCCCC(=O)N[C@H](CC(N)=O)C(=O)NCCc1cccc(OC)c1` [Compound CCXLVIII], the values for the IC50 against ClbP [1], against ClbP [2] and on Full-length WT ClbP were 100 to 300 µM, less than 100 µM and less than 100 µM, respectively.

As to `CCCCCCC(C)(C)C(=O)N[C@@H](CNCCc1ccccc1)CC(N)=O` [Compound CCXII], the 50% inhibitory concentration (IC50) was greater than 300 µM on ClbP [1], greater than 300 µM at ClbP [2] and 100 to 300 µM on Full-length WT ClbP.

`CCCCCCCC(=O)N[C@H](CC(N)=O)C(=O)N(C)CCc1ccc(O)cc1` [Compound CCLXXVII]: the concentration for half-maximal inhibition (IC50) at ClbP [1], against ClbP [2] and on Full-length WT ClbP was less than 100 µM each time.

With `CCCCCCCC(=O)N[C@H](CC(N)=O)C(=O)NCCc1ccc(C(F)(F)F)cc1` [Compound CXCV], the concentration for half-maximal inhibition (IC50) against ClbP [1] is greater than 300 µM; against ClbP [2] it was greater than 300 µM; against Full-length WT ClbP, 100 to 300 µM.

For the compound `O=C(C[C@@H](NC(=O)CCC1CCCCC1)C(=O)NCCc1ccc(O)c(O)c1)NO` [Compound CCLXXXIV], the values for the IC50 at ClbP [1], against ClbP [2] and against Full-length WT ClbP were 100 to 300 µM, 100 to 300 µM and less than 100 µM, respectively.

In the case of `NC(=O)C[C@@H](NC(=O)/C=C/CC1CCCCCC1)C(=O)NCCc1ccccc1` [Compound CCXXXVIII], the concentration for half-maximal inhibition (IC50) on ClbP [1], on ClbP [2] and against Full-length WT ClbP was less than 100 µM each time.

For `CCCCCCCC(=O)N[C@H](CC(N)=O)c1nnn(CCc2ccccc2)n1` [Compound XVIII], the IC50 at ClbP [1] is greater than 300 µM; against ClbP [2], greater than 300 µM; at Full-length WT ClbP it was 100 to 300 µM.

As for `CCCCCCCC(=O)N[C@H](CC(N)=O)C(=O)NCCc1cccnc1` [Compound CCXXX], the IC50 against ClbP [1], against ClbP [2] and against Full-length WT ClbP was less than 100 µM in each case.

For the compound `CCCCCCCC(=O)N[C@H](CC(N)=O)C(=O)NCCc1ccc(Cl)cc1` [Compound CXCIV], the concentration for half-maximal inhibition (IC50) against ClbP [1], against ClbP [2] and on Full-length WT ClbP was less than 100 µM throughout.

For the compound `NC(=O)C[C@@H](NC(=O)CCCCCCCCC(F)(F)F)C(=O)NCCc1ccc(O)cc1` [Compound CCCIV], the IC50 against ClbP [1], on ClbP [2] and against Full-length WT ClbP was less than 100 µM in each case.

Turning to `CCCCCCCC(=O)N[C@H](CC(N)=O)c1nc2ccccc2[nH]1` [Compound CCVII], the IC50 against ClbP [1] is greater than 300 µM; against ClbP [2], greater than 300 µM; on Full-length WT ClbP, less than 100 µM.

As to `CCCCCCCC(=O)N[C@H](CC(N)=O)C(=O)N[C@@H](C)Cc1ccc(O)cc1` [Compound CCXLIV], the IC50 against ClbP [1], on ClbP [2] and against Full-length WT ClbP was less than 100 µM throughout.

Consider `NC(=O)C[C@@H](NC(=O)CCCC1CCCCCC1)C(=O)NCCc1ccccc1` [Compound CCXXXIX], for which the IC50 on ClbP [1], against ClbP [2] and at Full-length WT ClbP was less than 100 µM each time.

In the case of `CCCC(=O)N[C@H](CC(N)=O)C(=O)NCCc1ccccc1` [Compound CCLXVIII], the IC50 was less than 100 µM against ClbP [1], greater than 300 µM against ClbP [2] and 100 to 300 µM at Full-length WT ClbP.

Regarding `CCCCCCCNC(=O)[C@H](CC(N)=O)NC(=O)OCc1ccccc1` [Compound CCIX], the results for the IC50 on ClbP [1], against ClbP [2] and against Full-length WT ClbP were greater than 300 µM, greater than 300 µM and 100 to 300 µM, respectively.

On Full-length WT ClbP, `CCCCCCCC(=O)N[C@H](CC(N)=O)C(=O)NCCc1ccc(O)cc1` [Compound CC] gave an IC50 of less than 100 µM.

In the case of `CCCCCCCC(=O)N[C@H](CC(N)=O)C(=O)NCCc1ccc(OC)nc1` [Compound CCXXXVII], the concentration for half-maximal inhibition (IC50) against ClbP [1], against ClbP [2] and at Full-length WT ClbP was less than 100 µM each time.

Take `CCCCCCCC(=O)N[C@H](CC(N)=O)C(=O)NCCc1cncs1` [Compound CCXXXII]: the half-maximal inhibitory concentration (IC50) against ClbP [1], against ClbP [2] and against Full-length WT ClbP was less than 100 µM throughout.

For the compound `CCCCCCCC(=O)N[C@H](CC(N)=O)C(=O)NCCc1ccncc1` [Compound CCVIII], the concentration for half-maximal inhibition (IC50) at ClbP [1], against ClbP [2] and against Full-length WT ClbP was less than 100 µM in each case.

For `CCCCCCCC(=O)N[C@H](CC(N)=O)C(=O)NCc1ccccc1` [Compound CCI], the IC50 on ClbP [1], against ClbP [2] and at Full-length WT ClbP was less than 100 µM each time.

In the case of `NC(=O)C[C@@H](NC(=O)CCCc1ccccc1)C(=O)NCCc1ccccc1` [Compound CCLXIX], the half-maximal inhibitory concentration (IC50) on ClbP [1], at ClbP [2] and at Full-length WT ClbP was less than 100 µM throughout.

As for `CCCCCCCC(=O)N[C@H](CC(N)=O)C(=O)NCCc1ccc(OC)cc1` [Compound CXCIX], the IC50 at ClbP [1], against ClbP [2] and at Full-length WT ClbP was less than 100 µM throughout.

With `CCCCCCCC(=O)N[C@H](CC(N)=O)C(=O)NCCc1ccsc1` [Compound CCVI], the half-maximal inhibitory concentration (IC50) on ClbP [1], against ClbP [2] and against Full-length WT ClbP was less than 100 µM throughout.

Take `CCCCCCCC(=O)N[C@H](CC(N)=O)C(=O)N[C@H](C)Cc1ccccc1` [Compound CCIII]: the IC50 at ClbP [1], against ClbP [2] and against Full-length WT ClbP was less than 100 µM throughout.

Regarding `NC(=O)C[C@@H](NC(=O)CCC1CCCCC1)C(=O)NCCc1ccccc1` [Compound CCXLIII], the half-maximal inhibitory concentration (IC50) against ClbP [1], on ClbP [2] and against Full-length WT ClbP was less than 100 µM throughout.

Turning to `CCCCCCCNC(=O)[C@H](CC(N)=O)NC(=O)OCC` [Compound XCIX], the IC50 against ClbP [1] and at ClbP [2] was greater than 300 µM throughout.

On to `CCCCCC(=O)N[C@H](CC(N)=O)C(=O)NCCc1ccc(C(F)(F)F)cc1` [Compound CCLIX], for which the IC50 against ClbP [2] and against Full-length WT ClbP was 100 to 300 µM each time.
